Laboratory results reported in US12648892B2, “Emergency eye wash” (Lebrun Labs LLC, priority 2024, dated 2026).
“And” between values parts separate entries of the source, which are not always exact repeats. Equal values may be shown once. “Also recorded” adds a separate entry of the source. Read-outs that look alike come from different tables or passages of the source.

Assays:
[1] = tested on: cornea; details: cited from earlier work
[2] = tested on: corneal stromal cell (keratocytes) nuclei; assay: NaOCl titration study, TUNEL positive nuclei counts; type: cell-based; details: New Zealand White, rabbit, 1 min, 8 %
Protocol: (§1) Whole New Zealand White rabbit eyes were used Prior to exposure a 10-mm internal dosing ring (FIG. 12A, part of the IVD kit) was placed over the central cornea that was then exposed to NaOCl.
Prior to each experiment (<1 h), NaOCl (CASRN 7681-52-9, Sigma-Aldrich, St. Louis, MO) was freshly diluted in sterile deionized water, mixed by five tube inversions prior to each application, and applied directly to the eyes (corneas) by transferring 100 μL with a micropipette into the dosing ring (FIG. 12A); the corneas were then exposed to this solution for exactly 1 min. […] The pH of the 32% NaOCl was measured using a Fisherbrand™ Accumet™ AB150 pH benchtop meter (Fisher Scientific, Waltham, MA). […]
Stained sections were viewed using a Leica DMRE fluorescence microscope (Leica Microsystems Inc., Buffalo Grove, IL). […] An L5 Fluorescence Filter Cube (Leica Microsystems Inc., Buffalo Grove, IL) was used for TUNEL and DoD imaging. Images were processed and analyzed using ImageJ software, version 1.54 (Schneider et al., 2012). […] Three corneal cryosections, each approximately 2.3 mm long and 0.5-0.9 mm wide (depending on swelling), were measured for each eye. To count TUNEL-positive nuclei, the number of discrete TUNEL-positive nuclei in the stroma that meet the size parameters associated with a keratocyte nucleus were recorded for each section using ImageJ software. […]

[3] = pH measurement of solutions; type: physicochemical; details: 32% NaOCl
Protocol: In another study, how quickly washing must be initiated was studied. AA wash was formulated as described above and used just after injury, 10 minutes after injury or 2 hours after injury. […] However this solution took 3.5 hours of rapid mixing to fully go into solution and the another 1.5 hours to adjust the pH which initially feel below to a pH of 3.25.
(§2) Prior to each experiment (<1 h), NaOCl (CASRN 7681-52-9, Sigma-Aldrich, St. Louis, MO) was freshly diluted in sterile deionized water, mixed by five tube inversions prior to each application, and applied directly to the eyes (corneas) by transferring 100 μL with a micropipette into the dosing ring (FIG. 12A); the corneas were then exposed to this solution for exactly 1 min. Immediately after exposure, corneas were rinsed for exactly 30 s by forcefully dispensing 20 mL saline (9 g/L NaCl) from an eye rinsing syringe (part of the IVD kit). The pH of the 32% NaOCl was measured using a Fisherbrand™ Accumet™ AB150 pH benchtop meter (Fisher Scientific, Waltham, MA).

[4] = tested on: corneal stromal cell (keratocytes) nuclei; assay: Wash bottle study (500-mL bottle, active wash): TUNEL counts and depth of damage (DoD); type: cell-based; details: eyes exposed to 32% sodium hypochlorite, then actively washed 15 min with 500 mL
Protocol: as §1, §2
A 100-ml beaker or 500-mL emergency eye wash bottle (FIG. 12B) was used to prepare the AA solution and wash the eyes (Lebrun and Nguyen, 2024). These containers hold a ready-to-use eye wash buffer (EWB) solution composed of potassium chloride (CASRN 7447-40-7, 2.7 mM; Fisher Scientific), potassium phosphate monobasic (CASRN 7778-77-0, 1.5 mM; Fisher Scientific), sodium chloride (CASRN 7647-14-5, 137.9 mM; Fisher Scientific), sodium phosphate dibasic (CASRN 7782-85-6, 8.1 mM; Sigma Aldrich), deionized water (ReadyRefresh, Stamford, CT), 1% dextran (CASRN 9004-54-0; Sigma Aldrich), and 1% bovine serum albumin (CASRN 9048-46-8; Sigma Aldrich). Before use, different amounts of powdered AA (CASRN 50-81-7; Sigma Aldrich) are dispersed into the liquid component and rapidly mixed to achieve a predefined concentration (Lebrun et al., 2021c, 2021d, 2021e) to form complete EWB+AA. […] The pH of the liquid portion of the wash solution is adjusted to 7.2 with HCl to ensure that the final wash solution for the 0.2% powdered AA reaches a pH of 6.99±0.5. For the 10% AA condition, the pH was further adjusted to 6.99±0.5 with 1 N NaOH. For the EWB only condition, the pH was adjusted to 6.99±0.5 with 1 N HCl. For the wash step, eyes were either passively soaked in beakers (100-mL conditions) or washed with an eyewash bottle (500-mL conditions) for the indicated times. The eyewash bottle allows for forceful spraying and recycling of the 500-mL solution (Lebrun and Nguyen, 2024). While this bottle can be used in vivo or in vitro, for the in vitro study described here, the eyes were placed cornea-side down in the well at the top of the bottle, and the bottles were compressed so that a jet of solution washed over the eye (see FIG. 12B).
The corneas of whole eyes were exposed to either 100 μL of 32% NaOCl for 1 min or 100 μL deionized sterile water for 1 min (control condition) in a dosing ring. Eyes were then rinsed, and all eyes were washed using 500-mL wash bottles (FIG. 12B). Washing was with sterile tap water (municipal water, Anaheim, CA, 0.22-micron pore size filtered), EWB, or EWB+0.2% AA. After “washing,” eyes were processed following the “postexposure” steps described below.
After washing, eyes were placed in fresh postexposure wells (part of the IVD kit) containing approximately 1.5 mL OM added to the level of the limbus. Eyes were then placed back into a humidified, 5% CO2, 37° C. incubator for 24 h. Corneas were then removed by dissection, placed in 4% paraformaldehyde in phosphate-buffered saline (fixative; Boston BioProducts, Inc., Milford, MA), and stored at 4° C.
After a minimum of 24 h in fixative, corneas were cut in half and infiltrated with 30% sucrose (Capella et al., 1965), and the tissues were then embedded in Tissue-Tek® O.C.T. compound (Sakura Finetek, Torrance, CA), snap frozen in liquid nitrogen, and stored in an ultralow freezer (−80° C., New Brunswick Scientific, Hamburg, Germany). […]

**Q.** With `O=C1O[C@H]([C@@H](O)CO)C(O)=C1O` [AA, ascorbic acid] as the compound, how does the “effect on corneal ulceration” value ([1]; subcutaneous injection of 15% AA solution within 3 h of the burn, once daily) read?
**A.** ineffective; also recorded: not effective

**Q.** What about the “effect on corneal ulceration” value ([1]; topical 10% AA eye drop pH 7.2, 2 h after the burn and hourly for 14 h per day) of the same compound?
**A.** reduced corneal ulceration

**Q.** Which results are given for `OCl` [NaOCl, sodium hypochlorite]?
**A.** TUNEL positive nuclei count, AVG ± SE (overall average) [2]: 3.1 ± 3.1; pH [3]: 12.04 and 12

**Q.** With Water as the compound, how does the “Depth of Damage (DoD), AVG ± SE (overall average)” value [4] read?
**A.** 59.6 ± 3.6%

**Q.** And the “Depth of Damage (DoD), S. AVG ± SE (section average per eye)” value [4]?
**A.** 44.2 ± 2.8% and 68.5 ± 0.5% and 60.9 ± 0.7%

**Q.** What about the “TUNEL positive nuclei count, AVG ± SE (overall average)” value (from here on “TUNEL positive nuclei count, AVG ± SE”) [4] of the same compound?
**A.** 254.9 ± 17.8

**Q.** And the “TUNEL positive nuclei count, S. AVG ± SE (section average per eye)” value [4]?
**A.** 231.0 ± 4.0 and 238.0 ± 2.6 and 287.7 ± 4.1

**Q.** And the “TUNEL positive nuclei count, AVG ± SE” value ([4]; listed as tap water)?
**A.** 254.9±17.8

**Q.** And the “Depth of Damage (DoD), AVG ± SE (overall average)” value ([4]; listed as water)?
**A.** 59.6±3.6%

**Q.** And the “Depth of Damage (DoD), S. AVG ± SE (section average per eye)” value ([4]; listed as water)?
**A.** 44.2±2.8% and 68.5±0.5% and 60.9±0.7%

**Q.** What about the “TUNEL positive nuclei count, AVG ± SE” value ([4]; listed as water) of the same compound?
**A.** 254.9±17.8

**Q.** And the “TUNEL positive nuclei count, S. AVG ± SE (section average per eye)” value ([4]; listed as water)?
**A.** 231.0±4.0 and 238.0±2.6 and 287.7±4.1

**Q.** And the “Depth of Damage (DoD), Section A” value ([4]; per eye)?
**A.** 47.0% and 68.4% and 62.3%

**Q.** What about the “Depth of Damage (DoD), Section B” value ([4]; per eye) of the same compound?
**A.** 41.4% and 69.4% and 59.8%

**Q.** What about the “TUNEL positive nuclei count, Section A” value ([4]; per eye) of the same compound?
**A.** 227.0 and 234.0 and 289.0

**Q.** What about the “TUNEL positive nuclei count, Section B” value ([4]; per eye) of the same compound?
**A.** 235.0 and 243.0 and 280.0

**Q.** What about the “Depth of Damage (DoD), Section A” value ([4]; per eye, listed as water) of the same compound?
**A.** 47.0% and 68.4% and 62.3%

**Q.** What about the “Depth of Damage (DoD), Section B” value ([4]; per eye, listed as water) of the same compound?
**A.** 41.4% and 69.4% and 59.8%

**Q.** What about the “Depth of Damage (DoD), Section C” value ([4]; per eye, listed as water) of the same compound?
**A.** 67.6% and 60.7%

**Q.** What about the “TUNEL positive nuclei count, Section A” value ([4]; per eye, listed as water) of the same compound?
**A.** 227.0 and 234.0 and 289.0

**Q.** What about the “TUNEL positive nuclei count, Section B” value ([4]; per eye, listed as water) of the same compound?
**A.** 235.0 and 243.0 and 280.0

**Q.** What about the “TUNEL positive nuclei count, Section C” value ([4]; per eye, listed as water) of the same compound?
**A.** 237.0 and 294.0
